# What was measured:
# Hela cells = assay: Subcutaneous transplantation of Hela cells into nude mice; type: in vivo
# Method: The method used herein for animal experiment was that using the subcutaneous transplantation of Hela cells into nude mice.
# Tumor tissues at vigorous growth phase were cut into the size of about 1.5mm^3, and inoculated subcutaneously to the right armpit of nude mice under sterile condition. The diameters of subcutaneous xenograft tumors in nude mice were measured with a vernier caliper. The animals were randomly divided when the tumors grew to the sizes of 100-200 mm^3. FD162 was divided into three groups: 20mg/kg, 10mg/kg and 5mg/kg, with 9 mice per group; rapamycin was 10mg/kg; the model group was given saline. All treatments were intraperitoneally administered once a day for 12 days. Throughout the experiment, tumor diameters and body weights were measured simultaneously twice a week. Tumor volume (TV) was calculated as follows: TV=½×a×b2, where a, b respectively represents the length and width of tumors. […]
# Met(h) = target: T1, Met(h) (Homo sapiens, UniProt P08581); assay: Tumor-associated kinase inhibition test; type: biochemical; details: read-out: Inhibitory rate (%)
# T1 construct: purchased Eurofins Pharma Discovery Services UK Limited
# Description: (§1) Eurofins Pharma Discovery Services UK Limited completed and reported this experiment.
# Tie2(h) = target: T2, Tie2(h) (Homo sapiens, UniProt Q02763); assay: Tumor-associated kinase inhibition test; type: biochemical; details: read-out: Inhibitory rate (%)
# T2 construct: purchased Eurofins Pharma Discovery Services UK Limited
# Description: as §1
# Itk(h) = target: T3, Itk(h) (Homo sapiens, UniProt Q08881); assay: Tumor-associated kinase inhibition test; type: biochemical; details: read-out: Inhibitory rate (%)
# T3 construct: purchased Eurofins Pharma Discovery Services UK Limited (contract testing)
# Description: as §1
# B-Raf(h) = target: T4, B-Raf(h) (Homo sapiens, UniProt P15056); assay: Tumor-associated kinase inhibition test; type: biochemical; details: read-out: Inhibitory rate (%)
# T4 construct: purchased Eurofins Pharma Discovery Services UK Limited (contract assay service)
# Description: as §1
# PKCζ(h) = target: T5, PKCζ(h) (Homo sapiens, UniProt Q05513); assay: Tumor-associated kinase inhibition test; type: biochemical; details: read-out: Inhibitory rate (%)
# T5 construct: purchased Eurofins Pharma Discovery Services UK Limited
# Description: as §1
# ZAP-70(h) = target: T6, ZAP-70(h) (Homo sapiens, UniProt P43403); assay: Tumor-associated kinase inhibition test; type: biochemical; details: read-out: Inhibitory rate (%)
# T6 construct: purchased Eurofins Pharma Discovery Services UK Limited
# Description: as §1
# PKBα(h) = target: T7, PKBα(h) (Homo sapiens, UniProt P31749); assay: Tumor-associated kinase inhibition test; type: biochemical; details: read-out: Inhibitory rate (%)
# T7 construct: purchased Eurofins Pharma Discovery Services UK Limited
# Description: as §1
# PKA(h) = target: T8, PKA(h) (Homo sapiens, UniProt P17612); assay: Tumor-associated kinase inhibition test; type: biochemical; details: read-out: Inhibitory rate (%)
# T8 construct: purchased Eurofins Pharma Discovery Services UK Limited
# Description: as §1
# Flt3(h) = target: T9, Flt3(h) (Homo sapiens, UniProt P36888); assay: Tumor-associated kinase inhibition test; type: biochemical; details: read-out: Inhibitory rate (%)
# T9 construct: purchased Eurofins Pharma Discovery Services UK Limited (contract testing)
# Description: as §1
# Abl(h) = target: T10, Abl(h) (Homo sapiens, UniProt P00519); assay: Tumor-associated kinase inhibition test; type: biochemical; details: read-out: Inhibitory rate (%)
# T10 construct: purchased Eurofins Pharma Discovery Services UK Limited (contract assay service)
# Description: as §1
# CK1δ(h) = target: T11, CK1δ(h) (Homo sapiens, UniProt P48730); assay: Tumor-associated kinase inhibition test; type: biochemical; details: read-out: Inhibitory rate (%)
# T11 construct: purchased Eurofins Pharma Discovery Services UK Limited (contract testing)
# Description: as §1
# CDK1/cyclinB(h) = target: T12, CDK1/cyclinB(h) (Homo sapiens, UniProt P06493); assay: Tumor-associated kinase inhibition test; type: biochemical; details: read-out: Inhibitory rate (%)
# T12 construct: purchased Eurofins Pharma Discovery Services UK Limited (contract assay service)
# Description: as §1
# FGFR3(h) = target: T13, FGFR3(h) (Homo sapiens, UniProt P22607); assay: Tumor-associated kinase inhibition test; type: biochemical; details: read-out: Inhibitory rate (%)
# T13 construct: purchased Eurofins Pharma Discovery Services UK Limited (contract testing)
# Description: as §1
# PKCγ(h) = target: T14, PKCγ(h) (Homo sapiens, UniProt P05129); assay: Tumor-associated kinase inhibition test; type: biochemical; details: read-out: Inhibitory rate (%)
# T14 construct: purchased Eurofins Pharma Discovery Services UK Limited
# Description: as §1
# BTK(h) = target: T15, BTK(h) (Homo sapiens, UniProt Q06187); assay: Tumor-associated kinase inhibition test; type: biochemical; details: read-out: Inhibitory rate (%)
# T15 construct: purchased Eurofins Pharma Discovery Services UK Limited (contract assay service)
# Description: as §1
# JAK2(h) = target: T16, JAK2(h) (Homo sapiens, UniProt O60674); assay: Tumor-associated kinase inhibition test; type: biochemical; details: read-out: Inhibitory rate (%)
# T16 construct: purchased Eurofins Pharma Discovery Services UK Limited (contract testing)
# Description: as §1
# CaMKIV(h) = target: T17, CaMKIV(h) (Homo sapiens, UniProt Q16566); assay: Tumor-associated kinase inhibition test; type: biochemical; details: read-out: Inhibitory rate (%)
# T17 construct: purchased Eurofins Pharma Discovery Services UK Limited (contract assay service)
# Description: as §1
# PIP5K1γ(h) = target: T18, PIP5K1γ(h) (Homo sapiens, UniProt O60331); assay: Tumor-associated kinase inhibition test; type: biochemical; details: read-out: Inhibitory rate (%)
# T18 construct: purchased Eurofins Pharma Discovery Services UK Limited (contract assay)
# Description: as §1
# PI3Kinase(p110δ/p85α)(h) = target: T19, PI3Kinase(p110δ/p85α)(h) (Homo sapiens, UniProt O00329); assay: Tumor-associated kinase inhibition test; type: biochemical; details: read-out: Inhibitory rate (%)
# T19 construct: purchased Eurofins Pharma Discovery Services UK Limited (contract assay)
# Description: as §1
# PKCμ(h) = target: T20, PKCμ(h) (Homo sapiens, UniProt Q15139); assay: Tumor-associated kinase inhibition test; type: biochemical; details: read-out: Inhibitory rate (%)
# T20 construct: purchased Eurofins Pharma Discovery Services UK Limited
# Description: as §1
# PKCη(h) = target: T21, PKCη(h) (Homo sapiens, UniProt P24723); assay: Tumor-associated kinase inhibition test; type: biochemical; details: read-out: Inhibitory rate (%)
# T21 construct: purchased Eurofins Pharma Discovery Services UK Limited
# Description: as §1
# PEK(h) = target: T22, PEK(h) (Homo sapiens, UniProt Q9NZJ5); assay: Tumor-associated kinase inhibition test; type: biochemical; details: read-out: Inhibitory rate (%)
# T22 construct: purchased Eurofins Pharma Discovery Services UK Limited
# Description: as §1
# PKCα(h) = target: T23, PKCα(h) (Homo sapiens, UniProt P17252); assay: Tumor-associated kinase inhibition test; type: biochemical; details: read-out: Inhibitory rate (%)
# T23 construct: purchased Eurofins Pharma Discovery Services UK Limited
# Description: as §1
# MAPK1(h) = target: T24, MAPK1(h) (Homo sapiens, UniProt P27361); assay: Tumor-associated kinase inhibition test; type: biochemical; details: read-out: Inhibitory rate (%)
# T24 construct: purchased Eurofins Pharma Discovery Services UK Limited
# Description: as §1
# JNK1α1(h) = target: T25, JNK1α1(h) (Homo sapiens, UniProt P45983); assay: Tumor-associated kinase inhibition test; type: biochemical; details: read-out: Inhibitory rate (%)
# T25 construct: purchased Eurofins Pharma Discovery Services UK Limited (contract testing)
# Description: as §1
# CaMKIIβ(h) = target: T26, CaMKIIβ(h) (Homo sapiens, UniProt Q13554); assay: Tumor-associated kinase inhibition test; type: biochemical; details: read-out: Inhibitory rate (%)
# T26 construct: purchased Eurofins Pharma Discovery Services UK Limited (contract assay service)
# Description: as §1
# PI3Kinase(p110α/p65α)(h) = target: T27, PI3Kinase(p110α/p65α)(h) (Homo sapiens, UniProt P42336); assay: Tumor-associated kinase inhibition test; type: biochemical; details: read-out: Inhibitory rate (%)
# T27 construct: purchased Eurofins Pharma Discovery Services UK Limited (contract assay)
# Description: as §1
# PDGFRα(h) = target: T28, PDGFRα(h) (Homo sapiens, UniProt P16234); assay: Tumor-associated kinase inhibition test; type: biochemical; details: read-out: Inhibitory rate (%)
# T28 construct: purchased Eurofins Pharma Discovery Services UK Limited
# Description: as §1
# T6 sequence (P43403 whole entry): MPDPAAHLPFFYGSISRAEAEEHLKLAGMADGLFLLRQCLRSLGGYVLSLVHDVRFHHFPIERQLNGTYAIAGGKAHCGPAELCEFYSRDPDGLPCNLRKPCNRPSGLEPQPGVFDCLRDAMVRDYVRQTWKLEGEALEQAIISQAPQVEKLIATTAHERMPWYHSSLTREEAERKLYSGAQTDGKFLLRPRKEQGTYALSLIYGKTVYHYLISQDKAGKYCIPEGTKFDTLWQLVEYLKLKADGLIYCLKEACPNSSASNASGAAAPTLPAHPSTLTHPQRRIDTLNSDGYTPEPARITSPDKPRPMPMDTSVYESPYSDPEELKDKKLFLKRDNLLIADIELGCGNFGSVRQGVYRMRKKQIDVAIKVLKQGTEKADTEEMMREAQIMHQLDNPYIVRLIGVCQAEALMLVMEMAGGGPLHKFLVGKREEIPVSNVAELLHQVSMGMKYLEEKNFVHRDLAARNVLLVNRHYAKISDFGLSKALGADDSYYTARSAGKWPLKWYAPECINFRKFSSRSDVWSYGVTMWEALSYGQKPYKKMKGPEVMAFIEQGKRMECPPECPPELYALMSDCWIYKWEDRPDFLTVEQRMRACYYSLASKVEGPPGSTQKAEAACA
# T11 sequence (P48730 whole entry): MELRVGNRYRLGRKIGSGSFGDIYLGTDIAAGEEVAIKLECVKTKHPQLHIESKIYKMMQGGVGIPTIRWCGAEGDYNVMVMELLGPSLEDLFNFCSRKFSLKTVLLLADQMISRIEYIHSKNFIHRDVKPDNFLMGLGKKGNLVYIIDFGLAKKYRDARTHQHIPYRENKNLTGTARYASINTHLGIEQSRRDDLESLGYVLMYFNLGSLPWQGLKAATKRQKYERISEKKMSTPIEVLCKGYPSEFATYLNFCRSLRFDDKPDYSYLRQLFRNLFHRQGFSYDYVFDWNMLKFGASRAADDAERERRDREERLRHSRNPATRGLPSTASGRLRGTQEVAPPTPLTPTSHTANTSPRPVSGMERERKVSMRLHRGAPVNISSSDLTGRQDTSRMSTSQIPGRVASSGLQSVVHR
# T28 sequence (P16234 24-1089): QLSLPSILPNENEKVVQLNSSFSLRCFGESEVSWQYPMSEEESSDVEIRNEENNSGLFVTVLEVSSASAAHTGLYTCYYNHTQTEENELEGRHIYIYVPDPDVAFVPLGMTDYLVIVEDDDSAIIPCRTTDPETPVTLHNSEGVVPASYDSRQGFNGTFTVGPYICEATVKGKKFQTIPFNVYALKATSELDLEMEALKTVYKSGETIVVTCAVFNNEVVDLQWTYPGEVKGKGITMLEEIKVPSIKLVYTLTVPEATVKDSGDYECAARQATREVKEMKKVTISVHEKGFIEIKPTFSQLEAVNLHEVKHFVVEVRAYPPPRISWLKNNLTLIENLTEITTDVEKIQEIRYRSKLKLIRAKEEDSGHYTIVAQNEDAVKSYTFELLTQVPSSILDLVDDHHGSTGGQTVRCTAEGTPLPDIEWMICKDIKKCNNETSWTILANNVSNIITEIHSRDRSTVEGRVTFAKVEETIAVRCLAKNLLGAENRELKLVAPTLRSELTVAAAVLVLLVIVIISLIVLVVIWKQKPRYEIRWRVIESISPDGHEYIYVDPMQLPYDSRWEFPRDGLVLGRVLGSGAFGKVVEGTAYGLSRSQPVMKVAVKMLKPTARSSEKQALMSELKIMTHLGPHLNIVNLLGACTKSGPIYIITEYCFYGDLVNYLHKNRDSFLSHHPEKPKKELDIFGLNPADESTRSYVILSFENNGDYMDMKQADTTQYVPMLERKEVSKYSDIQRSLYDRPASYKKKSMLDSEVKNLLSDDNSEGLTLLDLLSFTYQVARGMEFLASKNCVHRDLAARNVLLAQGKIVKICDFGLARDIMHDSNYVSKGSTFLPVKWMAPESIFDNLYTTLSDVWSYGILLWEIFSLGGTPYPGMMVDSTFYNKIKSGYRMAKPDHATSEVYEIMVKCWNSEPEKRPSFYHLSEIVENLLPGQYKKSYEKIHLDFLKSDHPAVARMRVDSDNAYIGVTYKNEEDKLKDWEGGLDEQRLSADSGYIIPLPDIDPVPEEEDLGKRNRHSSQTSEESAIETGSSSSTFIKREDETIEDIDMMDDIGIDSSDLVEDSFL
# T20 sequence (Q15139 whole entry): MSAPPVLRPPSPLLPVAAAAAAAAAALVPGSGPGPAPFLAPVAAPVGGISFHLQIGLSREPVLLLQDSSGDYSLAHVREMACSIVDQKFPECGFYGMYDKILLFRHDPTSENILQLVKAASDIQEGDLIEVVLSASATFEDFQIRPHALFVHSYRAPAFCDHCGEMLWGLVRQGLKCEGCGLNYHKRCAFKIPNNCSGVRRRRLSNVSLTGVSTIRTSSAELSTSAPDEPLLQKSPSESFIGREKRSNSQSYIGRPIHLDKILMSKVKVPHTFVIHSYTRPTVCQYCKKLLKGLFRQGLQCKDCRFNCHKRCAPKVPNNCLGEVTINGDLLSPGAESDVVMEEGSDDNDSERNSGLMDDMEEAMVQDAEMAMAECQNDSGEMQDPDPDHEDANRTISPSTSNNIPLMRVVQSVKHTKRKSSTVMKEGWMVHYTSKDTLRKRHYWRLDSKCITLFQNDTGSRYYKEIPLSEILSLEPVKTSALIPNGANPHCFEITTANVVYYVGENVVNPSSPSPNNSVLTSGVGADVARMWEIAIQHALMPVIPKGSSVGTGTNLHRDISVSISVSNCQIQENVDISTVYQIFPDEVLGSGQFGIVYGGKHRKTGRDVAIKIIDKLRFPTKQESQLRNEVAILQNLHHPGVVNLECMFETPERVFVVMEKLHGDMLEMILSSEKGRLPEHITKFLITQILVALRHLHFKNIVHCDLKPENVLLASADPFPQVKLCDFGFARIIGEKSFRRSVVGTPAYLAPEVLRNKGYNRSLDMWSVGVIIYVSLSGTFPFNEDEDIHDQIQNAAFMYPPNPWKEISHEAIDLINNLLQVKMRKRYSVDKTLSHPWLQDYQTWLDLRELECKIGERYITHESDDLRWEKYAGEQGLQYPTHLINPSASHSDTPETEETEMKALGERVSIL
# T2 sequence (Q02763 23-1124): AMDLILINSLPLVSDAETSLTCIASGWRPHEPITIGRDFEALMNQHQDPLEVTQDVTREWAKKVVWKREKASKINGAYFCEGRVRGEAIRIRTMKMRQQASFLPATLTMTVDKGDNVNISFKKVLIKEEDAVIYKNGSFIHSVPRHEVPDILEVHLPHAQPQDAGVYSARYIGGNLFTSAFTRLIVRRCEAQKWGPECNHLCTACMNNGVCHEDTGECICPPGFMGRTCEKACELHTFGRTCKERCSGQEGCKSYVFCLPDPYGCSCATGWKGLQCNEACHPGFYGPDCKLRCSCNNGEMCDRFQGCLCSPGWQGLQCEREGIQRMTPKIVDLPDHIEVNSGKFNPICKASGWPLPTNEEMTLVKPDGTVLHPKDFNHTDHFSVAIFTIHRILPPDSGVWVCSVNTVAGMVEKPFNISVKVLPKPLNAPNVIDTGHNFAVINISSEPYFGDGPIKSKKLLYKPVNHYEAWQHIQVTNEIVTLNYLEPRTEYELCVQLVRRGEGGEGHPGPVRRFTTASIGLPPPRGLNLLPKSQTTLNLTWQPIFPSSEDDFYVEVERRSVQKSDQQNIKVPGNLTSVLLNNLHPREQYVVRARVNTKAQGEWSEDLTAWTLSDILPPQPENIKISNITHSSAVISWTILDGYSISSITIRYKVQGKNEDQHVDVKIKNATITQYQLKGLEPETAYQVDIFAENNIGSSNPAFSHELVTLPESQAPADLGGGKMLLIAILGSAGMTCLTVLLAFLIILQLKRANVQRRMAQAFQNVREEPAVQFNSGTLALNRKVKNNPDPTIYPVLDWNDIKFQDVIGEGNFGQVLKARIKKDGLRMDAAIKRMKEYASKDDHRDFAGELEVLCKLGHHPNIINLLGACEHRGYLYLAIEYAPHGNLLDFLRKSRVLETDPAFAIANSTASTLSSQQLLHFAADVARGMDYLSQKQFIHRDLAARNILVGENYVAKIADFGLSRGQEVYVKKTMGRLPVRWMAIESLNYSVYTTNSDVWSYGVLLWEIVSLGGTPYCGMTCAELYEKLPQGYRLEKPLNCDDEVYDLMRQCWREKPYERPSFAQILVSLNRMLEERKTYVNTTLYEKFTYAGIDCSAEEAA
structure (smiles),measurement,setting,value
C=C(C)n1c(=O)n(C(C)=O)c2ncc(Br)cc21 [FD162],Tumor inhibitory rate,"Hela cells; 10 mg/kg intraperitoneally once a day for 12 days, Hela xenograft in nude mice",greater than 50%
same,Tumor inhibiting effect compared with positive control group (rapamycin 10mg/kg),"Hela cells; middle dose (10 mg/kg), i.p., 12 days, FIG. 5, in words",better than the positive control group
same,inhibition at 10 µM,Met(h),-9%
same,inhibition at 10 µM,Tie2(h),14%
same,inhibition at 10 µM,Itk(h),-7%
same,inhibition at 10 µM,B-Raf(h),-6%
same,inhibition at 10 µM,PKCζ(h),5%
same,inhibition at 10 µM,ZAP-70(h),-5%
same,inhibition at 10 µM,PKBα(h),4%
same,inhibition at 10 µM,PKA(h),-5%
same,inhibition at 10 µM,Flt3(h),4%
same,inhibition at 10 µM,Abl(h),2%
same,inhibition at 10 µM,CK1δ(h),7%
same,inhibition at 10 µM,CDK1/cyclinB(h),1%
same,inhibition at 10 µM,FGFR3(h),7%
same,inhibition at 10 µM,PKCγ(h),11%
same,inhibition at 10 µM,BTK(h),7%
same,inhibition at 10 µM,JAK2(h),7%
same,inhibition at 10 µM,CaMKIV(h),2%
same,inhibition at 10 µM,PIP5K1γ(h),-1%
same,inhibition at 10 µM,PI3Kinase(p110δ/p85α)(h),3%
same,inhibition at 10 µM,PKCμ(h),6%
same,inhibition at 10 µM,PKCη(h),2%
same,inhibition at 10 µM,PEK(h),0%
same,inhibition at 10 µM,PKCα(h),24%
same,inhibition at 10 µM,MAPK1(h),8%
same,inhibition at 10 µM,JNK1α1(h),4%
same,inhibition at 10 µM,CaMKIIβ(h),2%
same,inhibition at 10 µM,PI3Kinase(p110α/p65α)(h),3%
same,inhibition at 10 µM,PDGFRα(h),-9%

# Reference: patent US9738612B2, “Methylacryloyl benzimidazolone derivative and anti-tumour use thereof” (SHANGHAI NATURE STANDARD R&D AND BIOTECH CO., LTD, priority 2014, dated 2017)
